According to the supplement of paper PMC10307832:

What was measured:
Test in all cases: relative viability (nuclei count vs DMSO), 5 days (fraction); higher = more cells survive
IMD-0354 + Decitabine = compound: O=C(Nc1cc(C(F)(F)F)cc(C(F)(F)F)c1)c1cc(Cl)ccc1O [IMD-0354] + Nc1ncn([C@H]2C[C@H](O)[C@@H](CO)O2)c(=O)n1 [Decitabine] (partner 2 µM)
Procedure, shortened: (§1)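 Each reported value is a median over duplicate plates. It expresses relative viability: treated-well nuclei count divided by vehicle-well nuclei count. Lung cancer cell lines in 1536-well plates were dosed by pin tool a day after seeding, alone with one drug or with a fixed anchor-drug dose plus five library-drug doses (not always all listed) in √10 steps, and nuclei were counted after 5 days.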

CX-5461 + Vorinostat = compound: Cc1cnc(CNC(=O)c2c(=O)c3ccc(N4CCCN(C)CC4)nc3n3c2sc2ccccc23)cn1 [CX-5461] + O=C(CCCCCCC(=O)Nc1ccccc1)NO [Vorinostat] (partner 1 µM)
Procedure, shortened: as §1

IMD-0354 + Dasatinib = compound: O=C(Nc1cc(C(F)(F)F)cc(C(F)(F)F)c1)c1cc(Cl)ccc1O [IMD-0354] + Cc1nc(Nc2ncc(C(=O)Nc3c(C)cccc3Cl)s2)cc(N2CCN(CCO)CC2)n1 [Dasatinib] (partner 0.075 µM)
Procedure, shortened: as §1

IMD-0354 + Vorinostat = compound: O=C(Nc1cc(C(F)(F)F)cc(C(F)(F)F)c1)c1cc(Cl)ccc1O [IMD-0354] + O=C(CCCCCCC(=O)Nc1ccccc1)NO [Vorinostat] (partner 1 µM)
Procedure, shortened: as §1

Cell Line | relative viability (IMD-0354 + Decitabine; first compound 0.04 µM) | relative viability (IMD-0354 + Decitabine; first compound 0.1265 µM) | relative viability (IMD-0354 + Decitabine; first compound 0.4 µM) | relative viability (IMD-0354 + Decitabine; first compound 1.265 µM) | relative viability (IMD-0354 + Decitabine; first compound 4 µM) | relative viability (CX-5461 + Vorinostat; first compound 0.01 µM) | relative viability (CX-5461 + Vorinostat; first compound 0.1 µM) | relative viability (CX-5461 + Vorinostat; first compound 0.3162 µM) | relative viability (CX-5461 + Vorinostat; first compound 1 µM) | relative viability (IMD-0354 + Dasatinib; first compound 0.04 µM) | relative viability (IMD-0354 + Dasatinib; first compound 0.1265 µM) | relative viability (IMD-0354 + Dasatinib; first compound 0.4 µM) | relative viability (IMD-0354 + Dasatinib; first compound 1.265 µM) | relative viability (IMD-0354 + Dasatinib; first compound 4 µM) | relative viability (IMD-0354 + Vorinostat; first compound 0.04 µM) | relative viability (IMD-0354 + Vorinostat; first compound 0.1265 µM) | relative viability (IMD-0354 + Vorinostat; first compound 0.4 µM) | relative viability (IMD-0354 + Vorinostat; first compound 1.265 µM) | relative viability (IMD-0354 + Vorinostat; first compound 4 µM) | relative viability (CX-5461 + Vorinostat; first compound 0.03162 µM)
PC-3 [JPC-3] | 0.984 | 0.813 | 0.756 | 0.481 | 0.336 | 0.765 | 0.783 | 0.869 | 0.72 | 1.12 | 0.878 | 0.761 | 0.399 | 0.275 | 0.869 | 0.813 | 0.769 | 0.296 | 0.412 | –
EMC-BAC-2 | 0.955 | 0.994 | 0.696 | – | 0.282 | 0.435 | 0.269 | 0.203 | 0.201 | 0.313 | 0.313 | 0.235 | 0.19 | 0.218 | 0.547 | 0.473 | 0.419 | – | 0.439 | 0.138
NCI-H1395 | 0.74 | 0.645 | 0.713 | 0.358 | 0.402 | 0.672 | 0.535 | 0.379 | 0.473 | 0.432 | 0.47 | 0.385 | 0.372 | 0.291 | 0.873 | 0.691 | 0.616 | 0.375 | 0.408 | 0.635
NCI-H2126 | 0.526 | 0.59 | 0.641 | 0.594 | 0.306 | 0.725 | 0.79 | 0.522 | 0.881 | 0.587 | 0.666 | 0.387 | 0.216 | 0.237 | 0.762 | 0.826 | 0.692 | 0.382 | 0.289 | 0.861
NCI-H3122 | 0.46 | 0.455 | 0.408 | 0.469 | 0.227 | 1.02 | 1.12 | 1.07 | 0.967 | 0.843 | 0.824 | 0.321 | 0.286 | 0.0969 | 1.04 | 0.936 | 0.622 | 0.3 | 0.132 | 1.02
NCI-H1975 | 0.389 | 0.409 | 0.36 | 0.2 | 0.21 | 0.686 | 0.684 | 0.696 | 0.459 | 0.421 | 0.398 | 0.233 | 0.128 | 0.135 | 0.723 | 0.685 | 0.493 | 0.209 | 0.248 | 0.719
NCI-H2170 | 0.467 | 0.457 | 0.37 | 0.443 | 0.396 | 0.887 | 0.846 | 0.743 | 0.703 | 0.577 | 0.737 | 0.408 | 0.335 | 0.186 | 0.859 | 0.89 | 0.573 | 0.74 | 0.231 | 0.772
LU99A | 0.565 | 0.885 | 0.539 | 0.617 | 0.293 | 0.529 | 0.377 | 0.323 | 0.215 | 0.573 | 0.648 | 0.445 | 0.113 | 0.19 | 0.417 | 0.498 | 0.375 | 0.2 | 0.162 | 0.544
NCI-H2347 | 0.546 | 0.653 | 0.483 | 0.491 | 0.323 | 0.457 | 0.512 | 0.552 | 0.501 | 0.321 | 0.308 | 0.278 | 0.162 | 0.229 | 0.636 | 0.629 | 0.512 | 0.315 | 0.382 | 0.608
HCC-44 | 0.971 | 0.939 | 0.813 | 0.625 | 0.449 | 1.17 | 1.03 | 1.13 | 1.03 | – | – | – | – | – | 1.03 | 1.05 | 1.07 | 0.873 | 0.364 | 1.16
NCI-H2228 | – | – | – | – | – | 0.516 | 0.54 | 0.793 | 0.114 | 0.538 | 0.487 | 0.373 | 0.184 | 0.202 | 0.439 | 0.542 | 0.434 | 0.425 | 0.247 | 0.66
NCI-H1648 | 0.526 | 0.475 | 0.401 | 0.374 | 0.272 | 0.526 | 0.49 | 0.495 | 0.483 | – | – | – | – | – | 0.303 | 0.694 | 0.289 | 0.617 | 0.3 | 0.355
NCI-H1563 | – | – | – | – | – | – | – | – | – | 0.482 | 0.462 | 0.422 | 0.367 | 0.211 | – | – | – | – | – | –
A549 | 0.269 | 0.229 | 0.249 | 0.296 | 0.1 | – | – | – | – | – | – | – | – | – | – | – | – | – | – | –
NCI-H1623 | – | – | – | – | – | – | – | – | – | 0.551 | 0.52 | 0.499 | 0.24 | 0.348 | – | – | – | – | – | –
IA-LM | – | – | – | – | – | 1 | 1.11 | 0.828 | 1.01 | – | – | – | – | – | 0.89 | 0.737 | 0.397 | 1.11 | 0.681 | 0.925
CAL-12T | – | – | – | – | – | 0.833 | 0.74 | 0.577 | 0.337 | 0.356 | 0.387 | 0.255 | 0.0944 | 0.146 | 1.1 | 0.912 | 0.411 | 0.25 | 0.227 | 0.951
